In ChEMBL document CHEMBL1149262, “Monoamine transporter binding, locomotor activity, and drug discrimination properties of 3-(4-substituted-phenyl)tropane-2-carboxylic acid methyl ester isomers” (J Med Chem, 2004):
pIC50, pKi: −log10 of the molar value. Calls of active or inactive are those of the source. No cut-off for these calls is given here.

Experiments:
Mus musculus [1] = test: Locomotor activity in CD1 mouse assessed as stimulation at 0.3 mg/kg, ip after 1 hr relative to control; type: functional; settings: route intraperitoneal
Mus musculus [2] = test: Locomotor activity in CD1 mouse assessed as stimulation at 0.3 mg/kg, ip after 2 hrs relative to control; type: functional; settings: route intraperitoneal
Mus musculus [3] = test: Locomotor activity in CD1 mouse assessed as stimulation at 0.3 mg/kg, ip after 3 hrs relative to control; type: functional; settings: route intraperitoneal
Mus musculus [4] = test: Locomotor activity in CD1 mouse assessed as stimulation at 0.3 mg/kg, ip after 4 hrs relative to control; type: functional; settings: route intraperitoneal
Mus musculus [5] = test: Locomotor activity in CD1 mouse assessed as stimulation at 1 mg/kg, ip after 1 hr relative to control; type: functional; settings: route intraperitoneal
Mus musculus [6] = test: Locomotor activity in CD1 mouse assessed as stimulation at 1 mg/kg, ip after 2 hrs relative to control; type: functional; settings: route intraperitoneal
Mus musculus [7] = test: Locomotor activity in CD1 mouse assessed as stimulation at 1 mg/kg, ip after 3 hrs relative to control; type: functional; settings: route intraperitoneal
Mus musculus [8] = test: Locomotor activity in CD1 mouse assessed as stimulation at 1 mg/kg, ip after 4 hrs relative to control; type: functional; settings: route intraperitoneal
Mus musculus [9] = test: Locomotor activity in CD1 mouse assessed as stimulation at 0.1 mg/kg, ip after 1 hr relative to control; type: functional; settings: route intraperitoneal
Mus musculus [10] = test: Locomotor activity in CD1 mouse assessed as stimulation at 0.1 mg/kg, ip after 2 hrs relative to control; type: functional; settings: route intraperitoneal
Mus musculus [11] = test: Locomotor activity in CD1 mouse assessed as stimulation at 0.1 mg/kg, ip after 3 hrs relative to control; type: functional; settings: route intraperitoneal
Mus musculus [12] = test: Locomotor activity in CD1 mouse assessed as stimulation at 0.1 mg/kg, ip after 4 hrs relative to control; type: functional; settings: route intraperitoneal
Rattus norvegicus [13] = test: Cocaine discrimination in ip dosed CD Albino rat; type: functional
Rattus norvegicus [14] = test: Drug discrimination effect in CD Albino rat assessed as percent of rat choosing cocaine lever at 0.17 mg/kg, ip; type: functional; settings: route intraperitoneal
Rattus norvegicus [15] = test: Drug discrimination effect in CD Albino rat assessed as percent of rat choosing cocaine lever at 0.3 mg/kg, ip; type: functional; settings: route intraperitoneal
Mus musculus [16] = test: Activity in CD1 mouse assessed as hyperactivity at 1 mg/kg, ip after 4 hrs; type: functional, organism-based; set-up: dose 1 mg/kg
Mus musculus [17] = test: Activity in CD1 mouse assessed as stereotypy at 1 mg/kg, ip after 4 hrs; type: functional, organism-based; set-up: dose 1 mg/kg
Mus musculus [18] = test: Activity in CD1 mouse assessed as circling at 1 mg/kg, ip after 4 hrs; type: functional, organism-based; set-up: dose 1 mg/kg
Mus musculus [19] = test: Activity in CD1 mouse assessed as stereotypy at 10 mg/kg, ip after 4 hrs; type: functional, organism-based; set-up: dose 10 mg/kg
Mus musculus [20] = test: Activity in CD1 mouse assessed as circling at 10 mg/kg, ip after 4 hrs; type: functional, organism-based; set-up: dose 10 mg/kg
Mus musculus [21] = test: Activity in CD1 mouse assessed as slight or intermittent hyperactivity at 10 mg/kg, ip after 4 hrs; type: functional, organism-based; set-up: dose 10 mg/kg
Mus musculus [22] = test: Activity in CD1 mouse assessed as stereotypy at 100 mg/kg, ip after 4 hrs; type: functional, organism-based; set-up: dose 100 mg/kg
Mus musculus [23] = test: Activity in CD1 mouse assessed as hind limb splay at 100 mg/kg, ip after 4 hrs; type: functional, organism-based; set-up: dose 100 mg/kg; settings: Hindlimb
Mus musculus [24] = test: Activity in CD1 mouse assessed as death at 100 mg/kg, ip after 4 hrs; type: functional, organism-based; set-up: dose 100 mg/kg
Mus musculus [25] = test: Activity in CD1 mouse assessed as slight or intermittent hyperactivity at 100 mg/kg, ip after 4 hrs; type: functional, organism-based; set-up: dose 100 mg/kg
[26] = target: Sodium-dependent dopamine transporter (Homo sapiens, UniProt Q01959); test: Displacement of [3H]WIN-35428 from DAT
[27] = target: Sodium-dependent noradrenaline transporter (Homo sapiens, UniProt P23975); test: Displacement of [3H]nisoxetine from NET
Mus musculus [28] = test: Locomotor activity in ip dosed CD1 mouse in peak hour; type: functional
Mus musculus [29] = test: Locomotor activity in CD1 mouse assessed as stimulation at 3 mg/kg, ip after 1 hr relative to control; type: functional; settings: route intraperitoneal
Mus musculus [30] = test: Locomotor activity in CD1 mouse assessed as stimulation at 3 mg/kg, ip after 2 hrs relative to control; type: functional; settings: route intraperitoneal
Mus musculus [31] = test: Locomotor activity in CD1 mouse assessed as stimulation at 3 mg/kg, ip after 3 hrs relative to control; type: functional; settings: route intraperitoneal
Mus musculus [32] = test: Locomotor activity in CD1 mouse assessed as stimulation at 3 mg/kg, ip after 4 hrs relative to control; type: functional; settings: route intraperitoneal
Rattus norvegicus [33] = test: Drug discrimination effect in CD Albino rat assessed as percent of rat choosing cocaine lever at 0.1 mg/kg, ip; type: functional; settings: route intraperitoneal
Mus musculus [34] = test: Locomotor activity in ip dosed CD1 mouse after 1 hr relative to cocaine; type: functional
[35] = target: Sodium-dependent serotonin transporter (Homo sapiens, UniProt P31645)
Sequence of Sodium-dependent serotonin transporter (P31645 whole entry): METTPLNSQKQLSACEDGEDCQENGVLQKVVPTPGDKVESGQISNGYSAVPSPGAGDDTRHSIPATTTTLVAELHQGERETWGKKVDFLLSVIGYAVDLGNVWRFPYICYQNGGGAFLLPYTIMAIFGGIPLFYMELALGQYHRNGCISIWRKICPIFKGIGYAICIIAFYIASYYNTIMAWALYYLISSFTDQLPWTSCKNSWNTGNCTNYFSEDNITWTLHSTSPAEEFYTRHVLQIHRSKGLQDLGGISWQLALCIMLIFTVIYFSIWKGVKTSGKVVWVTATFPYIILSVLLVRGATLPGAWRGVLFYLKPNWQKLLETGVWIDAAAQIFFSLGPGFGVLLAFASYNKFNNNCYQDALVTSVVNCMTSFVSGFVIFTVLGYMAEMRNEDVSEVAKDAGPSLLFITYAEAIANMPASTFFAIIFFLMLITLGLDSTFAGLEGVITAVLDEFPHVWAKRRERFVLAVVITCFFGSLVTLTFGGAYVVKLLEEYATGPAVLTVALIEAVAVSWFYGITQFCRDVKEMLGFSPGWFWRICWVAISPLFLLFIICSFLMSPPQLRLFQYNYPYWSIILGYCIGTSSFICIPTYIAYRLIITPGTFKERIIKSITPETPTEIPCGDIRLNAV
Description: Displacement of [3H]paroxetine from 5HTT

Sequence of Sodium-dependent noradrenaline transporter (P23975 whole entry): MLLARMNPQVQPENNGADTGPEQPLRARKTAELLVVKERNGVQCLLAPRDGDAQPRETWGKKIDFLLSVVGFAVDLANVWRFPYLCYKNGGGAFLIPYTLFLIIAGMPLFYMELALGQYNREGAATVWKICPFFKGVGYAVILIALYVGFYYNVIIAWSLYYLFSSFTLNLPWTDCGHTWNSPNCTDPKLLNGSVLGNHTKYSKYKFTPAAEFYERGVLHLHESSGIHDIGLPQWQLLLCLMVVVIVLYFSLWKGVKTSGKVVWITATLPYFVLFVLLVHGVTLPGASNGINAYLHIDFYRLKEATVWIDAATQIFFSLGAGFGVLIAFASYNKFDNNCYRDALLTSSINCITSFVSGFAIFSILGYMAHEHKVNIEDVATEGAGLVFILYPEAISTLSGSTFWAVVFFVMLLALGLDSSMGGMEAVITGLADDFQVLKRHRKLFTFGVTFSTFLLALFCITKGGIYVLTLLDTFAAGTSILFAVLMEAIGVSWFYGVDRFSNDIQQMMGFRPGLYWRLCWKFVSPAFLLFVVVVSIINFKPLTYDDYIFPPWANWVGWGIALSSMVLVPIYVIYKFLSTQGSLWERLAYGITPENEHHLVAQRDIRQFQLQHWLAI
Sequence of Sodium-dependent dopamine transporter (Q01959 whole entry): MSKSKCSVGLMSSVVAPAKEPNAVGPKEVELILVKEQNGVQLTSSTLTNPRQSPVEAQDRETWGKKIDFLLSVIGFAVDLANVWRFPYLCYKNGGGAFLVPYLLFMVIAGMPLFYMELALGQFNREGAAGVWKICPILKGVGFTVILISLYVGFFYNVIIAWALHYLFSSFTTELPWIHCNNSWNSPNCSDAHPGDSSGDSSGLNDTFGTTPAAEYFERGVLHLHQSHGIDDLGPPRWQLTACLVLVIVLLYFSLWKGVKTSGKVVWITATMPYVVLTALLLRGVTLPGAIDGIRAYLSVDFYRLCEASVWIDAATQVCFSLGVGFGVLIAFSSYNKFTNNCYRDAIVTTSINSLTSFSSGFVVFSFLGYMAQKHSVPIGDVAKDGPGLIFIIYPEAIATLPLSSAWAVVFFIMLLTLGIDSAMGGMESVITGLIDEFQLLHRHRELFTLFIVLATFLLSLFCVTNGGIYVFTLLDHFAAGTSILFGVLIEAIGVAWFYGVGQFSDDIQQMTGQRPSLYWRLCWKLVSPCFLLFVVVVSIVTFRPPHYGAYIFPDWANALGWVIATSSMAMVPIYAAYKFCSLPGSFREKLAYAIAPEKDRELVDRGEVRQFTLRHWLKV

COC(=O)[C@@H]1C2CC[C@H](C[C@@H]1c1ccc(I)cc1)N2C
Activity (Mus musculus [1]): 415% | Activity (Mus musculus [2]): 1765% | Activity (Mus musculus [3]): 1289% | Activity (Mus musculus [4]): 900% | Activity (Mus musculus [5]): 1489% | Activity (Mus musculus [6]): 1721% | Activity (Mus musculus [7]): 2099% | Activity (Mus musculus [8]): 2546% | Activity (Mus musculus [9]): -12% | Activity (Mus musculus [10]): 38% | Activity (Mus musculus [11]): -25% | Activity (Mus musculus [12]): 62% | ED50 (Rattus norvegicus [13]): 0.2 mg/kg | Activity (Rattus norvegicus [14]): 25% | Activity (Rattus norvegicus [15]): 100% | Activity (Mus musculus [16]): Active | Activity (Mus musculus [17]): Active | Activity (Mus musculus [18]): Active | Activity (Mus musculus [19]): Active | Activity (Mus musculus [20]): Active | Activity (Mus musculus [21]): Active | Activity (Mus musculus [22]): Active | Activity (Mus musculus [23]): Active | Activity (Mus musculus [24]): Active | Activity (Mus musculus [25]): Active | pIC50 [26]: 8.89 | pIC50 [27]: 7.44 | pKi [27]: 7.66 | ED50 (Mus musculus [28]): 0.4 mg/kg | Activity (Mus musculus [29]): 770% | Activity (Mus musculus [30]): 145% | Activity (Mus musculus [31]): 327% | Activity (Mus musculus [32]): 794% | Activity (Rattus norvegicus [33]): 22% | Ratio (Mus musculus [34]): 4.4 | pKi [35]: 9.42
